# Article PMC8800111 (The Journal of Biological Chemistry, 2021)
# Key:
# Format in all cases: cell-based
# [1] = target: proteins of U3A human fibrosarcoma cells (4462 proteins detected) (Homo sapiens, UniProt O60293); settings: protein ZFC3H1; U3A cells
# [2] = target: proteins of U3A human fibrosarcoma cells (4462 proteins detected) (Homo sapiens, UniProt O75909); settings: protein CCNK; U3A cells
# [3] = target: proteins of U3A human fibrosarcoma cells (4462 proteins detected) (Homo sapiens, UniProt P17844); settings: protein DDX5; U3A cells
# [4] = target: proteins of U3A human fibrosarcoma cells (4462 proteins detected) (Homo sapiens, UniProt P24666); settings: protein ACP1, U3A cells
# [5] = target: proteins of U3A human fibrosarcoma cells (4462 proteins detected) (Homo sapiens, UniProt P35232); settings: protein PHB; U3A cells
# [6] = target: proteins of U3A human fibrosarcoma cells (4462 proteins detected) (Homo sapiens, UniProt P49321); settings: protein NASP, U3A cells
# [7] = target: proteins of U3A human fibrosarcoma cells (4462 proteins detected) (Homo sapiens, UniProt P49458); settings: protein SRP9, U3A cells
# [8] = target: proteins of U3A human fibrosarcoma cells (4462 proteins detected) (Homo sapiens, UniProt P55769); settings: protein NHP2L1; soluble abundance after heat, U3A cells
# [9] = target: proteins of U3A human fibrosarcoma cells (4462 proteins detected) (Homo sapiens, UniProt P61088); settings: protein UBE2N; UBE2NL; U3A cells
# [10] = target: proteins of U3A human fibrosarcoma cells (4462 proteins detected) (Homo sapiens, UniProt Q03188); settings: protein CENPC, U3A cells
# [11] = target: proteins of U3A human fibrosarcoma cells (4462 proteins detected) (Homo sapiens, UniProt Q07020); settings: protein RPL18; soluble abundance after heat, U3A cells
# [12] = target: proteins of U3A human fibrosarcoma cells (4462 proteins detected) (Homo sapiens, UniProt Q12893); settings: protein TMEM115; U3A, 10 μM, 2 h
# [13] = target: proteins of U3A human fibrosarcoma cells (4462 proteins detected) (Homo sapiens, UniProt Q5T5Y3); settings: protein CAMSAP1; soluble abundance after heat, U3A cells
# [14] = target: proteins of U3A human fibrosarcoma cells (4462 proteins detected) (Homo sapiens, UniProt Q8IUD2); settings: protein ERC1, U3A cells
# [15] = target: proteins of U3A human fibrosarcoma cells (4462 proteins detected) (Homo sapiens, UniProt Q8NDC0); settings: protein MAPK1IP1L; U3A cells
# [16] = target: proteins of U3A human fibrosarcoma cells (4462 proteins detected) (Homo sapiens, UniProt Q8NI22); settings: protein MCFD2, U3A cells
# [17] = target: proteins of U3A human fibrosarcoma cells (4462 proteins detected) (Homo sapiens, UniProt Q99459); settings: protein CDC5L; U3A cells
# [18] = target: proteins of U3A human fibrosarcoma cells (4462 proteins detected) (Homo sapiens, UniProt Q9BUL8); settings: protein PDCD10; soluble abundance after heat, U3A cells
# [19] = target: proteins of U3A human fibrosarcoma cells (4462 proteins detected) (Homo sapiens, UniProt Q9H832); settings: protein UBE2Z; U3A, 10 μM, 2 h
# [20] = target: proteins of U3A human fibrosarcoma cells (4462 proteins detected) (Homo sapiens, UniProt Q9NNW5); settings: protein WDR6, U3A cells
# [21] = target: proteins of U3A human fibrosarcoma cells (4462 proteins detected) (Homo sapiens, UniProt Q9NTW7); settings: protein ZFP64, U3A cells
# [22] = target: proteins of U3A human fibrosarcoma cells (4462 proteins detected) (Homo sapiens, UniProt Q9NVR2); settings: protein INTS10; U3A cells
# [23] = target: proteins of U3A human fibrosarcoma cells (4462 proteins detected) (Homo sapiens, UniProt Q9UBV8); settings: protein PEF1; U3A, 10 μM, 2 h
# [24] = target: proteins of U3A human fibrosarcoma cells (4462 proteins detected) (Homo sapiens, UniProt Q9UK53); settings: protein ING1; U3A, 10 μM, 2 h
# [25] = target: proteins of U3A human fibrosarcoma cells (4462 proteins detected) (Homo sapiens, UniProt Q9UNX4); settings: protein WDR3; U3A cells
# [26] = target: proteins of U3A human fibrosarcoma cells (4462 proteins detected) (Homo sapiens, UniProt Q9Y2A7); settings: protein NCKAP1; U3A cells
# [27] = target: proteins of U3A human fibrosarcoma cells (4462 proteins detected) (Homo sapiens, UniProt Q9Y3A4); settings: protein RRP7A; U3A cells
# [28] = target: proteins of U3A human fibrosarcoma cells (4462 proteins detected) (Homo sapiens, UniProt Q9Y5J6); settings: protein TIMM10B; U3A cells
# [29] = target: proteins of U3A human fibrosarcoma cells (4462 proteins detected) (Homo sapiens, UniProt Q9Y608); settings: protein LRRFIP2, U3A cells
# [30] = target: proteins of U3A human fibrosarcoma cells (4462 proteins detected) (Homo sapiens, UniProt Q9Y6D5); settings: protein ARFGEF2; U3A cells
# proteins of U3A human fibrosarcoma cells (4462 proteins detected) (Homo sapiens, UniProt Q9BUL8), sequence (Q9BUL8 whole entry): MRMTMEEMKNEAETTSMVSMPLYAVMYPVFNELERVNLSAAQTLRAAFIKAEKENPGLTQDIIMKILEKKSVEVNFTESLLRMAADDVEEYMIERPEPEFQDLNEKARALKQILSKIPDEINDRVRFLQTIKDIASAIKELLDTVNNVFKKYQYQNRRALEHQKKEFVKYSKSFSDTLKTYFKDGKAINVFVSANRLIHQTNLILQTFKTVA
# proteins of U3A human fibrosarcoma cells (4462 proteins detected) (Homo sapiens, UniProt Q5T5Y3), sequence (Q5T5Y3 whole entry): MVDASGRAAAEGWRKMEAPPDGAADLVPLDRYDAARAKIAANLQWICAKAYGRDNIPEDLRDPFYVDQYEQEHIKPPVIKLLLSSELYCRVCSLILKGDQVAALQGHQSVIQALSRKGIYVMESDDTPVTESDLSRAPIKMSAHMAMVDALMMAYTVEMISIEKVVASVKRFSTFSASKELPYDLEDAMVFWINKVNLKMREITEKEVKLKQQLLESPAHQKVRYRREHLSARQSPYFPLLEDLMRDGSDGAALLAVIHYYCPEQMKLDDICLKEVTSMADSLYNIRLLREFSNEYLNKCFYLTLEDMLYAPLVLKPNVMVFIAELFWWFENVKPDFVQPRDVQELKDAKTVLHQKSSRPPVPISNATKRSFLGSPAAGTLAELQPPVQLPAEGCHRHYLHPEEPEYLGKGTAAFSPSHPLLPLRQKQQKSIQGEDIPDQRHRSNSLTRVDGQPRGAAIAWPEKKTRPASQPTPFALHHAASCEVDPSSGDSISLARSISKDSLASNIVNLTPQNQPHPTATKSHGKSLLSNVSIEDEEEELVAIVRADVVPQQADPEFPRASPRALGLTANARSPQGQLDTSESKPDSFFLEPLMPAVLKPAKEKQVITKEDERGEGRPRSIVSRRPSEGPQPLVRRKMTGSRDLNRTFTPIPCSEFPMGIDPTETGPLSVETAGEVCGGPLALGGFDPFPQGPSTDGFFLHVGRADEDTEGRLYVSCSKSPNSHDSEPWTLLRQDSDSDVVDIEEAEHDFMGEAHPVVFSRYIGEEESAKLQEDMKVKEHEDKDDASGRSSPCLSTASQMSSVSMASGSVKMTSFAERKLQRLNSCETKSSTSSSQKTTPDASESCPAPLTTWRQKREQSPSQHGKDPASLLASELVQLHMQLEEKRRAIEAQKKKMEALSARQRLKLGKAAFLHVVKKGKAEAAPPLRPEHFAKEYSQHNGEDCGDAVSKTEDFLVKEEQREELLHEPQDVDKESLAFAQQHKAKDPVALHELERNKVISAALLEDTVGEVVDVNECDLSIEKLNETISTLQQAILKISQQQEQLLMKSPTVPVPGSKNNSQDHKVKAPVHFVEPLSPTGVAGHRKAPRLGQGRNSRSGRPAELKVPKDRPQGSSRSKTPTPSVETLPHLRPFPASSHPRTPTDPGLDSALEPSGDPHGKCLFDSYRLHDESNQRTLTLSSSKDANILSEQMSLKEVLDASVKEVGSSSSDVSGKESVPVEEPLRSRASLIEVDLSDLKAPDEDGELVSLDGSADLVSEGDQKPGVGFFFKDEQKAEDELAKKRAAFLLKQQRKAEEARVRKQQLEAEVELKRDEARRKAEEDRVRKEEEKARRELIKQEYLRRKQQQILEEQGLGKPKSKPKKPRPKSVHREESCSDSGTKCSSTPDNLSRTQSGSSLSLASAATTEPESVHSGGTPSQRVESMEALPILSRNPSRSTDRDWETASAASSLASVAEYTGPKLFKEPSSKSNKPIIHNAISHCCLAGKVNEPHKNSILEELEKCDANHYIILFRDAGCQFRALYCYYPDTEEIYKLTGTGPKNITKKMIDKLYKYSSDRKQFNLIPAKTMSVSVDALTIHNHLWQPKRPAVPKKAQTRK
# proteins of U3A human fibrosarcoma cells (4462 proteins detected) (Homo sapiens, UniProt Q9NNW5), sequence (Q9NNW5 whole entry): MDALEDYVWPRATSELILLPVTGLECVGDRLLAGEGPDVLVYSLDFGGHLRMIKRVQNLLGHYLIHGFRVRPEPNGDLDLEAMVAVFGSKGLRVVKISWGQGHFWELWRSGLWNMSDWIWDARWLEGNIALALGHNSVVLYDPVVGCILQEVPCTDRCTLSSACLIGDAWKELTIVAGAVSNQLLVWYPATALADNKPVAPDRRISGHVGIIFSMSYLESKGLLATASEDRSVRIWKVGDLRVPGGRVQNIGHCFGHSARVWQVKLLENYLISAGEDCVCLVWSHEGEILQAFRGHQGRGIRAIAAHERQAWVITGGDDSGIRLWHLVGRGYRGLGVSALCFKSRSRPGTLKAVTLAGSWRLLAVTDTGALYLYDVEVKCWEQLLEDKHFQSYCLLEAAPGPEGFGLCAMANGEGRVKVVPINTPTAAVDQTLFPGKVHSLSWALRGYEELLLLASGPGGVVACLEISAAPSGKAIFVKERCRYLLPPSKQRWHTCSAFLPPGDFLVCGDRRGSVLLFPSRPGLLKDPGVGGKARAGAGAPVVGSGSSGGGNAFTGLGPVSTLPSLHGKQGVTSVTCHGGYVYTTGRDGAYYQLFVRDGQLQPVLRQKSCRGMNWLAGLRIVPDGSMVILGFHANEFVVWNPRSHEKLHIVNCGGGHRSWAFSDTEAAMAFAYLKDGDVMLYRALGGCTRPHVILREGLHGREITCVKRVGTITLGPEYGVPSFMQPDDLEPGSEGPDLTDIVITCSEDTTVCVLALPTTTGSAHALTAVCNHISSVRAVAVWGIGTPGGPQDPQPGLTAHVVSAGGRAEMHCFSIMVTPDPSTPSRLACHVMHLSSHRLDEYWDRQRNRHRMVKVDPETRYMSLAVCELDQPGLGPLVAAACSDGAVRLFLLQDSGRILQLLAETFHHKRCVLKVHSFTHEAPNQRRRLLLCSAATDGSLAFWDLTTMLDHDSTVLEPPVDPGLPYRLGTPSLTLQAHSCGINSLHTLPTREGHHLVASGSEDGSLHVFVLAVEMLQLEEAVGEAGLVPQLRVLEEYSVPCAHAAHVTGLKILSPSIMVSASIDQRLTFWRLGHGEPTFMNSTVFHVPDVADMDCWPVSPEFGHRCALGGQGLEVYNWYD
# proteins of U3A human fibrosarcoma cells (4462 proteins detected) (Homo sapiens, UniProt Q9NVR2), sequence (Q9NVR2 whole entry): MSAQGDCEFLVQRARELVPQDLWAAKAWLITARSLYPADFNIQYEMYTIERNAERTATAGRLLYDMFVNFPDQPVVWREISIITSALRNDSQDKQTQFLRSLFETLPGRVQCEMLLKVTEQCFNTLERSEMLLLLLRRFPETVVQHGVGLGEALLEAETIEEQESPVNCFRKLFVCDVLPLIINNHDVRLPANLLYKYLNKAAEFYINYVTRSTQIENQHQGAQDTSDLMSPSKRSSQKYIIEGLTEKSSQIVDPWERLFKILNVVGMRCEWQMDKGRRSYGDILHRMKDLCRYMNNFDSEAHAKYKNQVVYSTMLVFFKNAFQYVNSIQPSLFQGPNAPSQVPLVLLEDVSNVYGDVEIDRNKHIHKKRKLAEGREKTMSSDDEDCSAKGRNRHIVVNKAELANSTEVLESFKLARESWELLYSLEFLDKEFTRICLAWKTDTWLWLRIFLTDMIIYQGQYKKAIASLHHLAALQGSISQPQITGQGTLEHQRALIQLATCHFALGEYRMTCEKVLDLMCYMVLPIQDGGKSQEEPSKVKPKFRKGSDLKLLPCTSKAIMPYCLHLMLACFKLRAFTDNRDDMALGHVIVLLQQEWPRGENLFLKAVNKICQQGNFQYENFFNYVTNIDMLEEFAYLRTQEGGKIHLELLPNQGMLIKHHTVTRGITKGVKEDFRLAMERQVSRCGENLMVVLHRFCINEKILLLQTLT
# proteins of U3A human fibrosarcoma cells (4462 proteins detected) (Homo sapiens, UniProt Q8IUD2), sequence (Q8IUD2 whole entry): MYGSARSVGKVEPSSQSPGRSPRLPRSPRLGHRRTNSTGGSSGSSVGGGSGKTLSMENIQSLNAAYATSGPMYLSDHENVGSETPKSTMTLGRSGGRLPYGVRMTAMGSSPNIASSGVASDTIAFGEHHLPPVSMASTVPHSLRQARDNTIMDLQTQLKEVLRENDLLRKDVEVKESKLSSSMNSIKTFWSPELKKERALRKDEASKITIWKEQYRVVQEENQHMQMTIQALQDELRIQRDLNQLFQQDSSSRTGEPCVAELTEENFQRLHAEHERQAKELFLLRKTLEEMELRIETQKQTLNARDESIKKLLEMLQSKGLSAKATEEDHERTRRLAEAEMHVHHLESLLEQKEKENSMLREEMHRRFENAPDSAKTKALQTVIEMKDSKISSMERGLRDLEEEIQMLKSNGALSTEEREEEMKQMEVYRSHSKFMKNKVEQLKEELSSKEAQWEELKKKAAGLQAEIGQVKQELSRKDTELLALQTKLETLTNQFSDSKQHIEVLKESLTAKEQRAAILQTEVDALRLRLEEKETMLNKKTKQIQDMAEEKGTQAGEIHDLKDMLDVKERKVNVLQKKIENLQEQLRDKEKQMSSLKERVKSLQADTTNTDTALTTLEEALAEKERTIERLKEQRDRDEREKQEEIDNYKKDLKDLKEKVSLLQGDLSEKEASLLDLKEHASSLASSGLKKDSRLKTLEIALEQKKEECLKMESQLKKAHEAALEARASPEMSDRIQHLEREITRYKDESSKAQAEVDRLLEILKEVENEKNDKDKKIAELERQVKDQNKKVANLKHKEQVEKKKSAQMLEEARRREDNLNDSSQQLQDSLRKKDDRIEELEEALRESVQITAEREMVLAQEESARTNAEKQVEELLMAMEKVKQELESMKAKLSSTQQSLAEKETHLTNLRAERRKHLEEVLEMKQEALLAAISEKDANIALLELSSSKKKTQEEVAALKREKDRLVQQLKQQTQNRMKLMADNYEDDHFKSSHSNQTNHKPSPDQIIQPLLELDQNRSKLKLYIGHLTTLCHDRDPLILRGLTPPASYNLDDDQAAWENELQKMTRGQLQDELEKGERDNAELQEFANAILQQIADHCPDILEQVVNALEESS
# proteins of U3A human fibrosarcoma cells (4462 proteins detected) (Homo sapiens, UniProt P55769), sequence (P55769 whole entry): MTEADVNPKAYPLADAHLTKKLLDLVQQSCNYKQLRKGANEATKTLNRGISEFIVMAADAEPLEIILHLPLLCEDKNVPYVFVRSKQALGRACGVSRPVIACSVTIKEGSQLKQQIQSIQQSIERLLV
# proteins of U3A human fibrosarcoma cells (4462 proteins detected) (Homo sapiens, UniProt Q8NI22), sequence (Q8NI22 27-146): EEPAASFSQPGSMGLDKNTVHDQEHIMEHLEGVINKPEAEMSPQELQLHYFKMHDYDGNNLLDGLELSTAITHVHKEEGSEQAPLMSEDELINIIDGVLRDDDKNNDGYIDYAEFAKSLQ
compound,measurement,setting,value
CCc1nc(N)nc(N)c1-c1ccc(Cl)cc1 [pyrimethamine],Log2 (PYR/DMSO),[1],0.18
same,Log2 (PYR/DMSO),[2],0.22
same,Log2 (PYR/DMSO),[3],0.19
same,Log2 (PYR/DMSO),[4],-0.04
same,Log2 (PYR/DMSO),[5],0.16
same,Log2 (PYR/DMSO),[6],-0.04
same,Log2 (PYR/DMSO),[7],-0.05
same,Log2 (PYR/DMSO),[8],0.14
same,Log2 (PYR/DMSO),[9],0.21
same,Log2 (PYR/DMSO),[10],-0.04
same,Log2 (PYR/DMSO),[11],0.15
same,"Log2 (PYR/DMSO), TMEM115",[12],0.38
same,Log2 (PYR/DMSO),[13],0.13
same,Log2 (PYR/DMSO),[14],-0.04
same,Log2 (PYR/DMSO),[15],0.22
same,Log2 (PYR/DMSO),[16],-0.05
same,Log2 (PYR/DMSO),[17],0.18
same,Log2 (PYR/DMSO),[18],0.15
same,"Log2 (PYR/DMSO), UBE2Z",[19],0.25
same,Log2 (PYR/DMSO),[20],-0.04
same,Log2 (PYR/DMSO),[21],-0.04
same,Log2 (PYR/DMSO),[22],0.18
same,"Log2 (PYR/DMSO), PEF1",[23],0.24
same,"Log2 (PYR/DMSO), ING1",[24],-0.22
same,Log2 (PYR/DMSO),[25],0.17
same,Log2 (PYR/DMSO),[26],0.15
same,Log2 (PYR/DMSO),[27],0.19
same,Log2 (PYR/DMSO),[28],0.18
same,Log2 (PYR/DMSO),[29],-0.04
same,Log2 (PYR/DMSO),[30],0.18
